The subject of one test is Staphylococcus aureus. The test can be described thus: Antimicrobial activity against Staphylococcus aureus 8325 incubated for 12 hrs by agar diffusion method. In kind it is functional. Background: A growth-free zone around the sample is the usual read-out of agar diffusion tests.
Another test concerns Bacillus subtilis. The test can be described thus: Antimicrobial activity against Bacillus subtilis incubated for 12 hrs by agar diffusion method. The format is functional.
The next test deals with Pseudomonas aeruginosa. The test can be described thus: Antimicrobial activity against Pseudomonas aeruginosa PAO1 incubated for 12 hrs by agar diffusion method. The format is functional.
Another test relates to Candida albicans. The test can be described thus: Antimicrobial activity against Candida albicans IBT 656 incubated for 24 hrs by broth dilution method. The format is functional. Background: Dilution methods test growth across graded concentrations, often in twofold steps.
The test system of test [1] is LNCaP. The test can be described thus: Cytotoxicity against human LNCaP cells assessed as inhibition of cell growth incubated for 72 hrs by CellTox Green cytotoxicity assay. In kind it is functional, cell-based.
The test system of test [2] is LNCaP C4-2B. The test can be described thus: Cytotoxicity against human LNCaP C4-2B cells assessed as inhibition of cell growth incubated for 72 hrs by CellTox Green cytotoxicity assay. In kind it is functional, cell-based.
The test system of test [3] is LNCaP. The test can be described thus: Cytotoxicity against drug resistant human LNCaP cells assessed as inhibition of cell growth incubated for 72 hrs by CellTox Green cytotoxicity assay. In kind it is functional, cell-based.
For test [4], the system named is LNCaP C4-2B. The test can be described thus: Cytotoxicity against drug resistant human LNCaP C4-2B cells assessed as inhibition of cell growth incubated for 72 hrs by CellTox Green cytotoxicity assay. In kind it is functional, cell-based.

Each structure is given as a SMILES string. Where only a bound is given, the exact number is not on record here.

Broadly, the MIC is the least concentration at which growth counts as inhibited. One may read the IC50 as the concentration needed to halve the response being measured. Consider `CCC/C=C\c1ccccc1/C=C/C(=O)N[C@H](Cc1ccc(O)cc1)C(=O)N(C)[C@@H](Cc1ccc(OC)c(O)c1Cl)C(=O)N(C)[C@@H](Cc1ccccc1)C(=O)OC[C@H]1NC(=O)CNC1=O`, for which the MIC against Staphylococcus aureus, in the test with Bacillus subtilis, against Pseudomonas aeruginosa and in the test with Candida albicans was > 50 µg/mL each time. In addition, the IC50 in the test with LNCaP [1], in the test on LNCaP C4-2B [2], with LNCaP [3] and in the test with LNCaP C4-2B [4] was > 10 µM in each case.
Turning to `CCC/C=C\c1ccccc1/C=C/C(=O)N[C@H](Cc1ccc(O)cc1)C(=O)N(C)[C@@H](Cc1ccc(OC)c(O)c1)C(=O)N(C)[C@@H](Cc1ccccc1)C(=O)O`, the MIC in the test on Staphylococcus aureus, in the test with Bacillus subtilis, against Pseudomonas aeruginosa and against Candida albicans was > 50 µg/mL in each case.
With `CCC/C=C\c1ccccc1/C=C/C(=O)N[C@H](Cc1ccc(O)cc1)C(=O)N(C)[C@@H](Cc1ccc(OC)c(O)c1Cl)C(=O)N(C)[C@@H](Cc1ccccc1)C(=O)O`, the MIC in the test with Staphylococcus aureus, against Bacillus subtilis, in the test with Pseudomonas aeruginosa and in the test on Candida albicans was > 50 µg/mL each time. In addition, the IC50 in the test with LNCaP [1], in the test with LNCaP C4-2B [2], in the test on LNCaP [3] and in the test on LNCaP C4-2B [4] was > 10 µM each time.
`CCC/C=C\c1ccccc1/C=C/C(=O)N[C@H](Cc1ccc(O)cc1)C(=O)N(C)[C@@H](Cc1ccc(OC)c(O)c1)C(=O)N(C)[C@@H](Cc1ccccc1)C(=O)OC[C@H]1NC(=O)CNC1=O`: the MIC against Staphylococcus aureus, with Bacillus subtilis, against Pseudomonas aeruginosa and with Candida albicans was > 50 µg/mL each time. Also, the IC50 in the test with LNCaP [1], in the test with LNCaP C4-2B [2], in the test with LNCaP [3] and in the test on LNCaP C4-2B [4] was > 10 µM in each case.

These data come from ChEMBL document CHEMBL5385954, “Pepticinnamins N, O, and P, Nonribosomal Peptides from the Soil-Derived Streptomyces mirabilis P8-A2” (J Nat Prod, 2024).
